Results from the NIST ThermoML archive (doi:10.1016/j.jct.2015.04.027).

Assay: xn = mol fraction of the nth substance listed
Conditions: 100 kPa, Liquid; for viscosity: Falling or rolling sphere viscometry; for mass density: Vibrating tube method

CN(C)C(=[NH2+])N(C)C.c1c[n-]cn1 [1,1,3,3-tetramethylguanidinium imidazol-1-ide] + CCCCO
Conditions | mass density, 293.15 K [kg/m3] | mass density, 298.15 K [kg/m3] | mass density, 303.15 K [kg/m3] | mass density, 308.15 K [kg/m3] | mass density, 313.15 K [kg/m3] | viscosity, 293.15 K [mPa·s] | viscosity, 298.15 K [mPa·s] | viscosity, 303.15 K [mPa·s] | viscosity, 308.15 K [mPa·s] | viscosity, 313.15 K [mPa·s]
x1 = 0.0499 | 828.74 | 824.87 | 820.97 | 817.04 | 813.07 | 3.053 | 2.7 | 2.399 | 2.141 | 1.92
x1 = 0.1004 | 845.73 | 841.79 | 837.82 | 833.83 | 829.83 | 3.248 | 2.868 | 2.549 | 2.276 | 2.04
x1 = 0.1999 | 875.01 | 870.95 | 866.87 | 862.77 | 858.67 | 3.727 | 3.272 | 2.89 | 2.569 | 2.298
x1 = 0.2997 | 899.57 | 895.41 | 891.24 | 887.07 | 882.9 | 4.41 | 3.801 | 3.323 | 2.931 | 2.604
x1 = 0.3985 | 920.24 | 916.05 | 911.78 | 907.55 | 903.31 | 5.155 | 4.414 | 3.823 | 3.343 | 2.948
x1 = 0.4997 | 938.26 | 933.99 | 929.7 | 925.4 | 921.09 | 6.003 | 5.029 | 4.322 | 3.751 | 3.286
x1 = 0.6499 | 960.31 | 955.97 | 951.62 | 947.27 | 942.92 | 7.076 | 5.887 | 5 | 4.267 | 3.737
x1 = 0.8002 | 978.39 | 974 | 969.59 | 965.19 | 960.8 | 8.02 | 6.617 | 5.547 | 4.739 | 4.097
x1 = 0.9004 | 988.56 | 984.14 | 979.72 | 975.28 | 970.84 | 8.6 | 7.032 | 5.877 | 5.021 | 4.299
x1 = 1 | 997.25 | 992.8 | 988.35 | 983.9 | 979.46 | 8.952 | 7.287 | 6.044 | 5.097 | 4.358

CN(C)C(=[NH2+])N(C)C.c1c[n-]cn1 [1,1,3,3-tetramethylguanidinium imidazol-1-ide] + CCCO
Conditions | mass density, 293.15 K [kg/m3] | mass density, 298.15 K [kg/m3] | mass density, 303.15 K [kg/m3] | mass density, 308.15 K [kg/m3] | mass density, 313.15 K [kg/m3] | viscosity, 293.15 K [mPa·s] | viscosity, 298.15 K [mPa·s] | viscosity, 303.15 K [mPa·s] | viscosity, 308.15 K [mPa·s] | viscosity, 313.15 K [mPa·s]
x1 = 0.0499 | 828.16 | 824.06 | 819.94 | 815.79 | 811.6 | 2.428 | 2.146 | 1.91 | 1.707 | 1.532
x1 = 0.0999 | 849.03 | 844.89 | 840.71 | 836.52 | 832.3 | 2.667 | 2.354 | 2.095 | 1.873 | 1.682
x1 = 0.2002 | 882.18 | 877.95 | 873.7 | 869.43 | 865.15 | 3.294 | 2.886 | 2.55 | 2.268 | 2.029
x1 = 0.2996 | 907.96 | 903.66 | 899.35 | 895.03 | 890.71 | 4.062 | 3.516 | 3.078 | 2.712 | 2.406
x1 = 0.4002 | 928.67 | 924.33 | 919.98 | 915.62 | 911.26 | 4.872 | 4.168 | 3.606 | 3.154 | 2.778
x1 = 0.4988 | 945.34 | 940.97 | 936.59 | 932.2 | 927.81 | 5.686 | 4.798 | 4.126 | 3.577 | 3.129
x1 = 0.6264 | 962.87 | 958.47 | 954.06 | 949.65 | 945.24 | 6.646 | 5.548 | 4.716 | 4.052 | 3.512
x1 = 0.8001 | 981.42 | 976.99 | 972.55 | 968.12 | 963.7 | 7.842 | 6.46 | 5.443 | 4.625 | 3.991
x1 = 0.9006 | 990.16 | 985.73 | 981.29 | 976.85 | 972.41 | 8.401 | 6.898 | 5.825 | 4.927 | 4.225
x1 = 1 | 997.25 | 992.8 | 988.35 | 983.9 | 979.46 | 8.952 | 7.287 | 6.044 | 5.097 | 4.358

CN(C)C(=[NH2+])N(C)C.c1c[n-]cn1 [1,1,3,3-tetramethylguanidinium imidazol-1-ide] + CCO
Conditions | mass density, 293.15 K [kg/m3] | mass density, 298.15 K [kg/m3] | mass density, 303.15 K [kg/m3] | mass density, 308.15 K [kg/m3] | mass density, 313.15 K [kg/m3] | viscosity, 293.15 K [mPa·s] | viscosity, 298.15 K [mPa·s] | viscosity, 303.15 K [mPa·s] | viscosity, 308.15 K [mPa·s] | viscosity, 313.15 K [mPa·s]
x1 = 0.0483 | 821.2 | 816.85 | 812.47 | 808.06 | 803.63 | 1.422 | 1.289 | 1.174 | 1.072 | 0.982
x1 = 0.0999 | 848.92 | 844.52 | 840.1 | 835.66 | 831.19 | 1.714 | 1.548 | 1.405 | 1.28 | 1.17
x1 = 0.2003 | 888.15 | 883.71 | 879.24 | 874.77 | 870.28 | 2.371 | 2.114 | 1.897 | 1.711 | 1.549
x1 = 0.3001 | 916.24 | 911.78 | 907.3 | 902.82 | 898.33 | 3.145 | 2.755 | 2.438 | 2.173 | 1.949
x1 = 0.3999 | 937.23 | 932.77 | 928.29 | 923.8 | 919.31 | 4.057 | 3.498 | 3.054 | 2.69 | 2.388
x1 = 0.5 | 953.33 | 948.83 | 944.31 | 939.83 | 935.34 | 5.057 | 4.296 | 3.643 | 3.174 | 2.822
x1 = 0.643 | 970.7 | 966.31 | 961.81 | 957.39 | 952.91 | 6.351 | 5.318 | 4.452 | 3.891 | 3.384
x1 = 0.7966 | 984.34 | 979.99 | 975.53 | 971.06 | 966.6 | 7.695 | 6.345 | 5.333 | 4.539 | 3.911
x1 = 0.8987 | 991.38 | 986.93 | 982.47 | 978.02 | 973.57 | 8.46 | 6.936 | 5.786 | 4.909 | 4.229
x1 = 1 | 997.25 | 992.8 | 988.35 | 983.9 | 979.46 | 8.952 | 7.287 | 6.044 | 5.097 | 4.358
